# Test results published in US20210315927A1, “TREATING ARDS USING A POLY-OXYGENATED ALUMINUM HYDROXIDE” (HEMOTEK LLC, priority 2020, published 2021).
# System: mechanically-induced ARDS in rodents
# Set-up: species or system male Sprague Dawley rats
# Settings: rat, in vivo
# Text: The following protocol and experimental procedures were approved by the Thomas D Morris, Inc. Institutional Animal Care and Use Committee (Protocol #20-007) and are consistent with the National Institutes of Health guidelines for the humane treatment of laboratory animals. Study subjects were male Sprague Dawley rats (N=21; 250-300 g; 8-10 weeks old; Charles River Laboratories, Inc., Wilmington, Mass. housed in pairs with a 12/12 day night cycle and provided ad libitum access to feed and water.
# Animals were inducted with 1-5% isoflurane in air for initial preoperative preparation and cannulations. The anesthetic plane was maintained with a continuous intravenous infusion (0.1 mg/kg/min) into a femoral vein using a pre-filled syringe of alfaxalone acetate (Alfaxan, Schering-Plough Animal Health, Welwyn Garden City, UK) that was connected to a syringe pump (Genie Touch™, Kent Scientific, Torrington, Conn.). A second femoral vein was cannulated to be used for infusion of IV treatments. A femoral artery cannula was connected to a pressure transducer for continuous monitoring of arterial blood pressures (BIOPAC MP-150, BIOPAC Systems, Goleta, Calif.). The same femoral artery cannula was also used to collect blood samples for analysis of blood gases and chemistry (ABL90 Flex, Radiometer, Denmark). […]
substance,measurement,value
poly-oxygenated aluminum hydroxide [Ox66™],supraphysiologic levels of PAO2 or sO2,did not show supraphysiologic levels of PAO2 or sO2
